Assay results reported in paper PMC9377007, “An Unexpected Deuterium-Induced Metabolic Switch in Doxophylline” (ACS Medicinal Chemistry Letters, 2022).

Experiment: Levels of doxophylline metabolites in mice plasma
Type: in vivo
From the text: From an analysis of the levels of metabolites in mice plasma, it was seen that deuteration of the dioxolane ring (d4-doxophylline) triggered considerable alterations in the relative abundances of the metabolites generated. […] This is mainly related to a marked increase of the metabolic route 2, in which the electronic influence of the two oxygen atoms adjacent to the target sp^3 carbon atom greatly facilitates oxene attack and homolytic cleavage of the C–H bond.[29]
With regard to d7-doxophylline, only a semiquantitative determination was feasible because its metabolites (with the exception of theophylline) retain deuterium atoms (see the Supporting Information for structures). Indeed, the presence of deuterium lowers the signals in the electrospray ionization source, and the corresponding deuterated standards of the metabolites would have been necessary to perform an accurate quantification. Moreover, no reference standard was available for the quantification of the metabolites dm-doxophylline 9 and dh-doxophylline 10, and their relative abundances were expressed as peak areas of the corresponding accurate-mass ions.
• Comparative pharmacokinetic study
A total of 96 CD1 male mice, approximately 6 weeks old and with a body weight of approximately 30 g, were purchased from Envigo RMS srl, (San Pietro al Natisone, UD, Italy). […]
Protocol for drug administration and blood sampling.
Blood samples were collected under light isoflurane anaesthesia from the sublingual vein at the following time points (n=3): pre-dose and 5, 15, 30 minutes, 1, 2, 4, 8 and 24 hours after i.v. dosing (20 mg/Kg, dose volume 5 mL/Kg) and pre-dose and 15, 30 minutes, 1, 2, 4, 8 and 24 hours after oral gavage dosing (80 mg/Kg, dose volume 5 mL/Kg). Each animal was sampled on each day at a maximum of two alternating time points.
Samples were transferred into tubes containing K3EDTA as anticoagulant, centrifuged, and stored at -80 °C. […] Sample preparation for HPLC-MS analysis.
A volume of 50 µL of caffeine solution (1 mg/L in water-methanol 1:1) were added to plasma sample aliquots (50 µL); after the addition of the precipitant solution (100 µL of 10% ice-cold trichloroacetic acid in water), samples were centrifuged at 13,000 rpm for ten minutes and the supernatant injected onto the HPLC system (see supporting information for chromatographic conditions). If the levels of analytes were over range, plasma samples were preventively diluted with blank plasma.
Quantification of doxophylline and its deuterated analogues d4 and d7 as well as their main metabolites, 7-theophylline acetic acid (T-COOH), 7-hydroxyethyl theophylline (Eto) and theophylline, was performed by using the calibration curves obtained with the corresponding working standards of the analytes and using caffeine as internal standard.
The pharmacokinetic parameters for doxophylline and its deuterated analogues were calculated by plotting the plasma concentration curves versus time obtained from the average values of three animals, using PK Solver

Row | SMILES | levels of all metabolites except dm-doxophylline 9 versus doxophylline (semiquantitative determination) | level of metabolite etophylline 7 versus doxophylline | plasmatic level of metabolite theophylline 1 versus doxophylline | level of dehydrogenated metabolite dh-doxophylline 10 versus doxophylline (peak area) | plasmatic level of metabolite dm-doxophylline 9 versus doxophylline (peak area)
1 | [2H]C1([2H])OC([2H])(C([2H])([2H])n2cnc3c2c(=O)n(C)c(=O)n3C)OC1([2H])[2H] [d7-doxophylline] | diminished levels |  |  |  | 
2 | [2H]C1([2H])OC(Cn2cnc3c2c(=O)n(C)c(=O)n3C)OC1([2H])[2H] [d4-doxophylline] |  | decreased level | significant increase | decrease | significant increase
